Data as given in US10988458B2, “Apoptosis signal-regulating kinase 1 inhibitors and methods of use thereof” (Enanta Pharmaceuticals, Inc., priority 2017, dated 2021).

Biological target: ASK1 kinase (Homo sapiens (Human), UniProt Q99683)
Test: ASK1 kinase inhibition, HTRF KinEASE-STK TR-FRET assay
Type: biochemical
Conditions: 5 nM ASK1, 1 uM STK3 peptide substrate, 100 uM ATP, 3 hours
Experimental: The ability (IC50) of compounds to inhibit ASK1 kinase activity was determined by HTRF® KinEASE™ Assay System.
ASK1 was purchased from Thermofisher (Catalogue #PV4011), ATP was purchased from Sigma (Catalogue #A7699), HTRF® KinEASE™ Assay System was obtained from Cisbio (Bedford, Mass.). ½ Area plate was purchased from Perkin Elmer (Catalogue ##6005560). HTRF® KinEASE™-STK is a generic method for measuring serine/threonine kinase activities using a time-resolved fluorescence resonance energy transfer (TR-FRET) immunoassay. The IC50 value for each compound was determined in the presence of compound (various concentration from 0 to 10 μM) and a fixed amount of ATP and peptide substrates. The test compound, 1 uM STK3 peptide substrate, and 5 nM of ASK1 kinase are incubated with kinase reaction buffer containing 50 mM HEPES pH 7.5, 0.01% BRIJ-35, 10 mM MgCl2, and 1 mM EGTA for 30 minutes. 100 uM ATP is added to start kinase reaction and incubated for 3 hours. The STK3-antibody labeled with Eu^3+-Cryptate and 125 nM streptavidin-XL665 are mixed in a single addition with stop reagents provided by the Cisbio kit used to stop the kinase reaction. Fluorescence is detected using an Envision Multilabeled 2014 reader from PerkinElmer. The Fluorescence is measured at 615 nm (Cryptate) and 665 nm (XL665) and a ratio of 665 nm/615 nm is calculated for each well. The resulting TR-FRET is proportional to the phosphorylation level. Staurosporine was used as the positive control. IC50 was determined by XLfit 5.3.
By using above method, the inhibition of ASK1 was tested for the compound of formula (I). IC50 ranges are as follows: A<1 nM; 1 nM B<10 nM; 10 nM<C<100 nM; 100 nM<D<1 μM; […].

ASK1 kinase, sequence (Q99683 whole entry): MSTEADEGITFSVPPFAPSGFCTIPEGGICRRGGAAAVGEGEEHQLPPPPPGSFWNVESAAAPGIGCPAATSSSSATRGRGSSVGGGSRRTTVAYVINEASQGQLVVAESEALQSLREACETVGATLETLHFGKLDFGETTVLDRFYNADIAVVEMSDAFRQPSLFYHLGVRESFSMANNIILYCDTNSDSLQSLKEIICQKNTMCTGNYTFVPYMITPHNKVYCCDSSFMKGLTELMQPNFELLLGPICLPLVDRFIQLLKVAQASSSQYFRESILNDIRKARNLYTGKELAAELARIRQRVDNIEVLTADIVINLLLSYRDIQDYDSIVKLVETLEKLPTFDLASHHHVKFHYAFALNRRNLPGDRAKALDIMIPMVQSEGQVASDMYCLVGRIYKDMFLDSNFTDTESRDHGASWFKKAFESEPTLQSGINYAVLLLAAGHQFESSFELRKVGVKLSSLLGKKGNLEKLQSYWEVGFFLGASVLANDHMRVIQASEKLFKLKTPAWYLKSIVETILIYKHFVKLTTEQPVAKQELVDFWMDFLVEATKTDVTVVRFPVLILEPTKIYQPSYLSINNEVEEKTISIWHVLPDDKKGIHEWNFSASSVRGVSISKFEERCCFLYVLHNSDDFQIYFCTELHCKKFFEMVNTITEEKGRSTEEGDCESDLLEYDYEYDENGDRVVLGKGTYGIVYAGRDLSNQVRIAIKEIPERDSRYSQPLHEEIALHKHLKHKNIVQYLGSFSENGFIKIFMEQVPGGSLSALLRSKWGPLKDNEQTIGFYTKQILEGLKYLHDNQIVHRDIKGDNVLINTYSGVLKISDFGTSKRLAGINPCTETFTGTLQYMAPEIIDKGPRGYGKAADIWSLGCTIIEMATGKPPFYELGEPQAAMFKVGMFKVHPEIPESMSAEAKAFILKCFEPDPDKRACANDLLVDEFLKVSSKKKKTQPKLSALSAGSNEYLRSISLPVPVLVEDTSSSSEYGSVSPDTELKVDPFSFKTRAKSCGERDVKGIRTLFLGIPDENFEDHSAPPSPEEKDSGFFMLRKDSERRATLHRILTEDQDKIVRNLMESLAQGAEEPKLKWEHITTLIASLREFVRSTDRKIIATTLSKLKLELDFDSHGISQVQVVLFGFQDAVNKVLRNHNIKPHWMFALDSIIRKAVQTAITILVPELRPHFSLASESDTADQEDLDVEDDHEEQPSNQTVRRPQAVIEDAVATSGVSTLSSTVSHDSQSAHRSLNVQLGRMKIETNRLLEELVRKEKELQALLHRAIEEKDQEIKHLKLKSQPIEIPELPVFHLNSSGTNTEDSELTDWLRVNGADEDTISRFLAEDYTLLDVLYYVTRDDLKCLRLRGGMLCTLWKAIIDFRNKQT

Row | SMILES | IC50 [nM]
1 | Cc1cc(F)c(C(=O)Nc2cccc(-n3cnnc3C(C)C)n2)cc1-n1cnc(C2CC2)c1 [Example 1c, 5-(4-cyclopropyl-1H-imidazol-1-yl)-2-fluoro-N-(6-(3-isopropyl-4H-1,2,4-triazol-4-yl)pyridin-2-yl)-4-methylbenzamide] | > 1000
2 | Cc1cc(F)c(C(=O)Nc2cccc(-n3nnnc3C(C)C)n2)cc1-n1cnc(C(F)(F)F)c1 [Example 2b] | 100 to 1000
3 | CC(=O)OC[C@@H](C)n1nnnc1-c1cccc(NC(=O)c2cc(-n3cnc(C4CC4)c3)c(C)cc2F)n1 [Example 6a, (R)-2-(5-(6-(5-(4-cyclopropyl-1H-imidazol-1-yl)-2-fluoro-4-methyl-benzamido)pyridin-2-yl)-1H-tetrazol-1-yl)propyl acetate] | 100 to 1000

Second part, the molecule after the results:

Row | IC50 [nM] | SMILES
4 | 100 to 1000 | Cc1cc(F)c(C(=O)Nc2cccc(-c3nnnn3C(C)C(=O)O)n2)cc1-n1cnc(C2CC2)c1 (centres unmarked) [Example 19a]
5 | > 1000 | Cc1cc(F)c(C(=O)Nc2ccnc(-c3nnn[nH]3)n2)cc1-n1cnc(C2CC2)c1 [Example 36a]
